Test results: publication PMC5537074 (Journal of medicinal chemistry, 2017)

Key:
PPARγ = settings: as compared to rosiglitazone; cited from earlier work
rodents = settings: cited from earlier work
[1] = system: cultured cells (adipocyte differentiation); settings: cultured cells treated with compound; cited from earlier work
T2DM patients = settings: cited from earlier work
[2] = molecular target: T1, human GAL4-PPARγ-Hinge-LBD (Homo sapiens, UniProt P37231); experiment: Transactivation assay; format: cell-based; settings: HEK293T cells, GAL4-PPARγ-Hinge-LBD / UAS-luciferase, 18 h incubation, doses 169 pM to 10 μM
T1 sequence (P37231 238-503 limits assumed): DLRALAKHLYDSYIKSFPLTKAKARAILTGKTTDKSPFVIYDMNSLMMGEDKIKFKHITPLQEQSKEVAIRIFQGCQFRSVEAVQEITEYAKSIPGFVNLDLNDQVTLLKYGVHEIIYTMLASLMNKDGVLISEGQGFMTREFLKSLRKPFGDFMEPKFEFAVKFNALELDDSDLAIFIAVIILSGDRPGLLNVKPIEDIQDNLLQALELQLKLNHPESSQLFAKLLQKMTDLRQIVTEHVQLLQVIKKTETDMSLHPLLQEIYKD

In the case of `O=S(=O)(Nc1cc(Cl)c(Oc2cnc3ccccc3c2)c(Cl)c1)c1ccc(Cl)cc1Cl` [Compound 1, 2,4-dichloro-N-(3,5-dichloro-4-(quinolin-3-yloxy)phenyl)benzenesulfonamide], the “maximal transcriptional activation of reporter genes” value (PPARγ) is given as “approximately 30%”, the “lowers blood glucose levels” value (rodents; 0.3 mg/kg dose) is given as “over 30%” and the “total weight gain, heart weight gain, lung weight gain” value (rodents; compared with rosiglitazone administration) is given as “less total weight gain, heart weight gain, and lung weight gain”. The Adipocyte differentiation [1] was “not enhanced”, the “pharmacokinetic and pharmacodynamic properties” value (T2DM patients; Phase 1 studies (4 studies)) was “favorable pharmacokinetic and pharmacodynamic properties” and the tolerability (T2DM patients; Phase 2a, multicenter, double blind, placebo controlled, T2DM patients) was “generally well tolerated”.

In the case of `O=S(=O)(Nc1cc(Cl)c(Oc2cnc3ccccc3c2)c(Cl)c1)c1cccs1` [Compound 15, N-(3,5-dichloro-4-(quinolin-3-yloxy)phenyl)thiophene-2-sulfonamide], the “EC50 (nM) n=3” value [2] is reported as “no activity”.

For `CN(CCOc1ccc(CC2SC(=O)NC2=O)cc1)c1ccccn1` (stereo not drawn) [rosiglitazone], the Adipocyte differentiation [1] is given as “significant induction”.

For “N-(3,5-dichloro-4-(quinolin-3-yloxy)phenyl)-thiophene-2-carboxamide [Compound 7]”, the “EC50 (nM) n=3” value [2] was “no activity”.
